Results: US20070134744A1, “Epothilone resistant cell lines” (priority 2000, published 2007)

Assays:
297/C5/0 cells = type: cell-based, human; settings: 297/C5/0 (EpoA selected), 72 hrs, average of three experiments
Procedure: (§1) Anti-proliferative assays are performed basically as described (Meyer et al., Int. J. Cancer 43:851 (1989)). Briefly, cells are seeded at 1.5×10^3 cells/well into 96-well microtiter plates and allowed to adhere by incubation overnight. Compounds are added in serial dilutions on day 1. The plates are then incubated for an additional 3 days, after which the cells are fixed with 3.3% v/v glutaraldehyde, washed with water and stained with 0.05% w/v methylene blue according to conventional methods. After washing, the dye is eluted with 3% HCl and the optical density measured at 665 nm with a SpectraMax Plus (Molecular Devices, Sunnyvale, Calif.) according to manufacturers instructions. IC50 values are determined by mathematical curve-fitting using the SoftPro2.6.1 program (Molecular Devices, Sunnyvale, Calif.) using the formula (OD treated−OD start)/(OD control−OD start)×100. […] IC50 determinations with the cell line 298/D4/40 are performed in the presence of 40 nM epothilone A.
(§2) Data in Table 4 are gathered according to the following methods: Cells (1×10^3) are seeded in 96-well plates and allowed to adhere for 24 hrs. Compounds are then added as two-fold serial dilutions and incubation continued for an additional 72 hrs. Cell numbers at the beginning and at the end of the experiment are estimated by methylene blue staining of cellular protein mass according to conventional methods. The net mass increase of vehicle-treated cells is set as 100% growth. The IC50 is determined as the drug concentration that leads to half-maximal growth inhibition compared to the control. The resistance factor (RF) for a particular drug is calculated by dividing the IC50 determined on the resistant cell line by that determined on the parental KB-31 cells. Data are presented as average±standard deviation (SD) of three separate experiments, except na=not applicable (n<3). Colchicine-selected KB-8511 cells overexpressing P-glycoprotein served as a reference for the classical multi-drug-resistant phenotype.

315/sc5.9 cells = type: cell-based, human
Procedure: as §1, §2

298/D4/40 cells = type: cell-based, human; settings: 298/D4/40 (EpoA selected), 72 hrs, in the presence of 40 nM epothilone A
Procedure: as §1, §2

KB-8511 cells = type: cell-based, human
Procedure: as §2

EA60 cells = test: Cell cycle analysis by FACS; type: cell-based; settings: 24 hours, 60 nM epothilone A
Procedure: (§3) Cells are fixed by resuspending in cold 70% ethanol, washing again with 5 ml of PBS and resuspending in PI solution ([…] propidium iodide, 38 mM sodium citrate, 20 μg/ml RNAse A). After incubation in PI solution at 37° C. for 30 minutes, cells are analyzed by flow cytometry according to conventional methodology (apparatus and software commercially available from Becton Dickinson Immunocytometry Systems, CA).
(§4) Cell cycle distribution patterns of epothilone A resistant and parental MDA-MB-435 epothilone A sensitive cells are compared by standard FACS analysis. […] Thus, a significant part of the epothilone A resistant cell population appears to overcome the G2/M block that normally occurs in the cell cycle of epothilone A sensitive cells.

MDA-MB-435 cells = test: Cell cycle analysis by FACS; type: cell-based; settings: 24 hours, 20 nM epothilone A
Procedure: as §3, §4

[1] = biological target: T1, tubulin in KB-31 cell lysates (Homo sapiens, UniProt P07437); test: Cell-free tubulin polymerization assay; type: biochemical; settings: KB-31 lysates, 5 min 37° C., 0-100 μM
T1 construct: decrease in the unpolymerized pool of tubulin in KB-31 cell lysates; endogenous in cells; host or cells: KB-31 human epidermoid carcinoma cells (intact cells or hypotonic lysates)
T1 sequence (P68363 whole entry): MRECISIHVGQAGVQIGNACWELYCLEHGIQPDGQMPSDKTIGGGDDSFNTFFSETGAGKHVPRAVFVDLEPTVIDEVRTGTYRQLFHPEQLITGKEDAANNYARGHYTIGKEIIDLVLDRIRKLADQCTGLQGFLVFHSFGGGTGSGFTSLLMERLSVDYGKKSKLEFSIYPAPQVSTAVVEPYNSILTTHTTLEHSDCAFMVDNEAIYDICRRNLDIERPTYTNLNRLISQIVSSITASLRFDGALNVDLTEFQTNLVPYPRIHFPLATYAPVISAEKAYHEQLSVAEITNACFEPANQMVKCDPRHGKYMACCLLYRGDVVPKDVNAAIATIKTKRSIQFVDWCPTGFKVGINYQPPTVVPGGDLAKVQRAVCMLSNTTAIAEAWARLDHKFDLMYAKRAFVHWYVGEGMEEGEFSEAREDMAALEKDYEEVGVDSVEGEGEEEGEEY
T1 sequence (P07437 whole entry): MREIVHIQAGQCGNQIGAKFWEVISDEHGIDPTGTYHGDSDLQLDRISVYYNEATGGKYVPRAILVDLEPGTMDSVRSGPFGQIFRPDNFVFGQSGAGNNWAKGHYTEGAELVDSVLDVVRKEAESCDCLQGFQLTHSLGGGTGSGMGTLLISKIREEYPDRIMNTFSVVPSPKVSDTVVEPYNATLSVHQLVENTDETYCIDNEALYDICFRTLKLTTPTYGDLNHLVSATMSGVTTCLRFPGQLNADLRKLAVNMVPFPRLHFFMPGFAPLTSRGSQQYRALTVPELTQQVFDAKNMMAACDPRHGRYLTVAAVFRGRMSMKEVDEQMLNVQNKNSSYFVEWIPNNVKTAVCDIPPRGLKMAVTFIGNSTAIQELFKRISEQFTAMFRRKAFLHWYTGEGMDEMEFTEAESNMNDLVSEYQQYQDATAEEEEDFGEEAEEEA
Procedure: (§5) For the assessment of drug effects on the ratio between unpolymerized and polymerized tubulin in a cell-free system, cells are lysed at the time of drug addition and processed as follows. Cells are seeded and incubated for 18-24 hrs as described above. One plate at a time is then transferred to a dimmed tissue-culture hood and cells are washed twice with 1 ml of room temperature PBS/O. After careful removal of remaining PBS/O, 200 μl of room-temperature HLB/A containing test substances at the desired concentration is added to the cells. Final vehicle concentration is 1%. The plates are wrapped in aluminum foil and incubated for 5 min at 37° C. Lysates are then transferred to eppendorf tubes, vortexed for 5 seconds, followed by centrifugation for 30 minutes at room-temperature in a table-top centrifuge at 12′000×g. Further processing of the samples is performed as described above.
(§6) However, it was not clear from this experiment whether the decrease in epothilone A-mediated tubulin polymerization is due to decreased drug uptake or a genuine defect in tubulin functionality. To address this question, cells are lysed before incubation with epothilone A. Specifically, KB-31, 297/C5/0 and 298/D4/40 cells (2×10^5) are separately seeded in 6-well plates and allowed to adhere for 24 hrs. Cells are then lysed in hypotonic buffer containing 0, 1, 10 or 100 μM epothilone A. Vehicle (DMSO) concentration was 1%. Following incubation for 5 min at 37° C., samples are centrifuged to separate soluble from polymerized tubulin and the levels of unpolymerized tubulin is assessed by Western blotting as described above.

[2] = biological target: T2, tubulin in 297/C5/0 cell lysates (Homo sapiens, UniProt P07437, T274P); test: Cell-free tubulin polymerization assay; type: biochemical; settings: 297/C5/0 lysates, 5 min 37° C., 0-100 μM, vs KB-31
T2 construct: endogenous in cells; host or cells: 297/C5/0 and 298/D4/40 sublines of KB-31 (intact cells or hypotonic lysates)
T2 sequence (P07437 whole entry T274P): as the sequence (P07437 whole entry) above, with T274P counted along it
T2 sequence (P68363 whole entry partner): as the sequence (P68363 whole entry) above
Procedure: as §5, §6

[3] = biological target: T3, tubulin in 298/D4/40 cell lysates (Homo sapiens, UniProt P07437, T274P); test: Cell-free tubulin polymerization assay; type: biochemical; settings: 298/D4/40 lysates, 5 min 37° C., 0-100 μM
T3 construct: endogenous in cells; host or cells: 297/C5/0 and 298/D4/40 sublines of KB-31 (intact cells or hypotonic lysates)
T3 sequence (P07437 whole entry T274P): as the sequence (P07437 whole entry) above, with T274P counted along it
T3 sequence (P68363 whole entry partner): as the sequence (P68363 whole entry) above
Procedure: as §5, §6

Structure (SMILES): C/C(=C\c1csc(C)n1)[C@@H]1C[C@@H]2O[C@@H]2CCC[C@H](C)[C@H](O)[C@@H](C)C(=O)C(C)(C)[C@@H](O)CC(=O)O1 [Epothilone A, epothilone A]
- RF (resistance factor: IC50 resistant cell line / IC50 parental KB-31) (297/C5/0 cells): 44.7
- RF (resistance factor: IC50 resistant cell line / IC50 parental KB-31) (315/sc5.9 cells; 315/sc5.9 (EpoB selected), 72 hrs, average of three experiments): 1.2
- resistance profile in words (315/sc5.9 cells; 315/sc5.9 vs parental KB-31): marginal cross-resistance
- RF (resistance factor: IC50 resistant cell line / IC50 parental KB-31) (298/D4/40 cells): 71.4
- RF (resistance factor: IC50 resistant cell line / IC50 parental KB-31) (KB-8511 cells; KB-8511 (Colch selected), 72 hrs, average of three experiments): 0.7
- resistance profile in words (KB-8511 cells; KB-8511 vs parental KB-31): retain full activity
- cell cycle distribution (EA60 cells): overcomes the G2/M phase block
- cell cycle distribution (MDA-MB-435 cells): blocked at the G2/M phase
- unpolymerized tubulin in cell lysates [1]: dose-dependent decrease in the unpolymerized pool of tubulin
- dose-response curve for unpolymerized tubulin in cell lysates [2]: shifted to higher concentrations
- changes in unpolymerized tubulin in cell lysates [3]: completely refractory
